The values that follow come from US9643971B2 (GALLEON PHARMACEUTICALS, INC., priority 2013, dated 2017).

Counter-ions that a name gives are not always drawn.

In one data set the test system is anesthetized rat. Put plainly: Anesthetized rat spirometry screening assay. Format: in vivo. As to conditions: 2 minute AUC of minute volume increase vs. comparator N-[2,6-di-(n-propylamino)-[1,3]pyrimidin-4-yl]-N,O-dimethyl-hydroxylamine. The source says: Effect of Compounds of the Invention on Respiratory Rate (RR), Tidal Volume (VT), and the Product Minute Volume Using an Anesthetized Rat Spirometry Screening Assay
Anesthetized rats provide a quick method of screening compounds for respiratory and cardiovascular activity. In contrast to the conscious rat model, this model offers an experimental set up with less variation in the baseline cardiovascular and respiratory measures. Compounds screened in this assay may be examined in a conscious rat model.
Rats were initially anesthetized with 3% isoflurane (inhaled) and femoral artery and vein cannulas were surgically inserted. Once cannulated, the rats were transitioned to urethane anesthesia (1.5 g/kg; i.v.) and a tracheal cut-down was performed. After placing the tracheal cannula, it was connected to a pneumotachometer to record respiratory airflow from which respiratory rate (RR), tidal volume (VT), and their product minute volume were derived. After the surgical preparation was complete, animals were allowed to stabilize for 30 minutes while respiratory rate, tidal volume, minute volume, blood pressure and heart rate were recorded continuously. Arterial blood gases (ABG) were obtained from arterial blood collected from the femoral artery. ABG measurements were taken before and 6 minutes after vehicle and each dose of compound administered. Compounds being screened were administered via bolus injections through the venous cannula followed by a saline flush (total time of administration is approximately 30 seconds), and the animal was monitored for at least 6 minutes for changes in cardiovascular efforts. Compounds were prepared in formulations identified to ensure optimal solubility. As such, vehicle controls were matched for the formulation of each compound tested. Dosing of the compound being screened was 0.1 and 0.3 mg/kg. The next dose was not administered until all cardiovascular and respiratory measures had returned to baseline levels. The positive control compounds used were N-[4,6-di-(n-propylamino)-[1,3,5]triazin-2-yl]-N,O-dimethyl-hydroxylamine or N-[2,6-di-(n-propylamino)-[1,3]pyrimidin-4-yl]-N,O-dimethyl-hydroxylamine (both administered at the end of each screening experiment (0.3 mg/kg dose) to validate the experiment and also to serve as a measure with which the compound being screened could be compared.
Data were analyzed by collecting cardiovascular and respiratory data in 30 second averages (BINs). Data were plotted 2 minutes before challenge and then 6 minutes after challenge.

Another data set can be described thus: in vitro. As to conditions: male, rat, microsomes.
Data set [1] can be described thus: In vitro metabolic stability in human liver microsomes (HLM). The settings on record: both, human, liver microsomes. For orientation: Liver microsomes are a subcellular fraction often used to study metabolism.

For `CCCNc1nc(NC)c2nc(-c3ccc(F)cc3)nc(NC)c2n1` [Compound 112a, N^4,N^8-Dimethyl-N^2-n-Propyl-6-(4-fluorophenyl)-pyrimido[5,4-d]pyrimidine-2,4,8-triamine], the “AUC MV Inc (2 min) (ratio vs. std*)” value with anesthetized rat is recorded as 0.14 ratio vs. std. Moreover, the figures for the half-life at 5 μM (in the data set “in vitro”; in data set [1]) were 1.73 h and 2.02 h, respectively.

For `CCCNc1nc(-c2ccc(F)cc2)nc2c(NCCC)nc(NC)nc12` [Compound 114a, N^2-Methyl-N^4,N^8-di-n-propyl-6-(4-fluoro-phenyl)-pyrimido[5,4-d]pyrimidine-2,4,8-triamine], the “AUC MV Inc (2 min) (ratio vs. std*)” value in the data set with anesthetized rat is 0.05 ratio vs. std. Besides, the half-life at 5 μM in “in vitro” came out at 4.15 h; in data set [1], 5.08 h.

For the compound `CCCNc1nc(NCCOC(C)C)nc2c(NCCC)nc(NC)nc12` [Compound 37a, N^2-(2-Isopropoxy-ethyl)-N^6-methyl-N^4,N^8-di-n-propyl-pyrimido[5,4-d]pyrimidine-2,4,6,8-tetraamine], the “AUC MV Inc (2 min) (ratio vs. std*)” value in the data set with anesthetized rat is 1.23 ratio vs. std. Moreover, the results for the half-life at 5 μM (in the data set “in vitro”; in data set [1]) were 1.27 h and 2.25 h, respectively.

For `CCCCc1nc(NCCC)c2nc(NC)nc(NCCC)c2n1` [Compound 118a, 6-n-Butyl-N^2-methyl-N^4,N^8-di-n-propyl-pyrimido[5,4-d]pyrimidine-2,4,8-triamine], in the data set with anesthetized rat, the “AUC MV Inc (2 min) (ratio vs. std*)” value was 0.05 ratio vs. std. In addition, the half-life at 5 μM in “in vitro” is 0.567 h; in data set [1] it was 1.2 h.

Consider `CCCNc1nc(N(C)OC)nc2c(NCCC)nc(N(C)OC)nc12` [Compound 19a, N^2,N^6-Bis-(N-Methoxy(N-methyl)amino)-N^4,N^8-bis-n-propylamino-pyrimido[5,4-d]pyrimidine hydrochloride], for which the “AUC MV Inc (2 min) (ratio vs. std*)” value in the data set with anesthetized rat was found to be 0.00 ratio vs. std. Moreover, the values for the half-life at 5 μM (in “in vitro”; in data set [1]) were 1.77 h and 1.83 h, respectively.

Turning to `CCCCNc1nc(NC)c2nc(NCCCC)nc(NC)c2n1.Cl` [Compound 83a, N^2,N^6-Di-n-butyl-N^4,N^8-dimethyl-pyrimido[5,4-d]pyrimidine-2,4,6,8-tetraamine hydrochloride], the “AUC MV Inc (2 min) (ratio vs. std*)” value in the data set on anesthetized rat is recorded as 1.05 ratio vs. std. In addition, the results for the half-life at 5 μM (in the data set “in vitro”; in data set [1]) were 5.58 h and 4.15 h, respectively.

Regarding `CCCNc1nc(NCCOC)nc2c(NCCC)nc(NC)nc12` [Compound 35a, N^2-(2-Methoxyethyl)-N^6-methyl-N^4,N^8-di-n-propyl-pyrimido[5,4-d]pyrimidine-2,4,6,8-tetraamine], the “AUC MV Inc (2 min) (ratio vs. std*)” value in the data set on anesthetized rat was 1.33 ratio vs. std. In addition, the half-life at 5 μM in “in vitro” is 1.7 h; in data set [1], 3.75 h.

For `CCCNc1nc(N(C)C)nc2c(NCCC)nc(NC)nc12.Cl` [Compound 29a, N^2,N^2,N^6-Trimethyl-N^4,N^8-di-n-propyl-pyrimido[5,4-d]pyrimidine-2,4,6,8-tetraamine hydrochloride], the “AUC MV Inc (2 min) (ratio vs. std*)” value in the data set on anesthetized rat was determined as 0.95 ratio vs. std. For the same compound, the half-life at 5 μM stood at 0.733 h in the data set “in vitro” and 1.57 h in data set [1].

Turning to `CCCNc1nc(NCc2cccc(Cl)c2C)nc2c(NCCC)nc(NC)nc12` [Compound 49a, N^2-(3-Chloro-2-methyl-benzyl)-N^6-methyl-N^4,N^8-di-n-propyl-pyrimido[5,4-d]pyrimidine-2,4,6,8-tetraamine hydrochloride], in the data set with anesthetized rat, the “AUC MV Inc (2 min) (ratio vs. std*)” value is 0.11 ratio vs. std. Moreover, the half-life at 5 μM in the data set “in vitro” worked out at 1.4 h; in data set [1] it was 3.17 h.

As to `CCCNc1nc(NCc2ccc(Cl)c(Cl)c2)nc2c(NCCC)nc(NC)nc12` [Compound 51a, N^2-(3,4-Dichlorobenzyl)-N^6-methyl-N^4,N^8-di-n-propyl-pyrimido[5,4-d]pyrimidine-2,4,6,8-tetraamine], the “AUC MV Inc (2 min) (ratio vs. std*)” value in the data set with anesthetized rat was 0.08 ratio vs. std. Besides, the figures for the half-life at 5 μM (in “in vitro”; in data set [1]) were 1.2 h and 2.12 h, respectively.

For `CNc1nc(N(C)NC)nc2c(NC)nc(N(C)C)nc12` [Compound 93a, 6-(N,N′-Dimethyl-hydrazino)-N^2,N^2,N^4,N^8-tetramethyl-pyrimido[5,4-d]pyrimidine-2,4,8-triamine], the “AUC MV Inc (2 min) (ratio vs. std*)” value in the data set with anesthetized rat is listed as 0.03 ratio vs. std. Moreover, the half-life at 5 μM in the data set “in vitro” came to 0.233 h; in data set [1], 1.35 h.

In the case of `CNc1nc(N(C)NC)nc2c(NC)nc(N(C)NC)nc12` [Compound 91, 2,6-bis-(N,N′-dimethyl-hydrazino)-N^4,N^8-dimethyl-pyrimido[5,4-d]pyrimidine-4,8-diamine], in the data set with anesthetized rat, the “AUC MV Inc (2 min) (ratio vs. std*)” value is listed as 0.08 ratio vs. std. Also, the half-life at 5 μM was found to be 0.4 h in the data set “in vitro” and 1.7 h in data set [1].

Consider `CCCCNc1nc(NCCC)c2nc(NCCCC)nc(NCCC)c2n1.Cl` [Compound 8a, N^2,N^6-Di-n-butyl-N^4,N^8-di-n-propyl-pyrimido[5,4-d]pyrimidine-2,4,6,8-tetraamine hydrochloride], for which the “AUC MV Inc (2 min) (ratio vs. std*)” value in the data set with anesthetized rat amounted to 0.14 ratio vs. std. The half-life at 5 μM in “in vitro” was 5.52 h; in data set [1], more than 8.33 h.

Consider `CCCNc1nc(NCCO)nc2c(NCCC)nc(NC)nc12` [Compound 33a, 2-(6-Methylamino-4,8-bis-n-propylamino-pyrimido[5,4-d]pyrimidin-2-yl-amino)-ethanol], for which the “AUC MV Inc (2 min) (ratio vs. std*)” value with anesthetized rat is reported as 0.29 ratio vs. std. Also, the figures for the half-life at 5 μM (in the data set “in vitro”; in data set [1]) were 1.77 h and 1.92 h, respectively.

Turning to `CCCNc1nc(NCc2ccc(F)cc2)nc2c(NCCC)nc(NC)nc12` [Compound 53a, N^2-(4-Fluorobenzyl)-N^6-methyl-N^4,N^8-di-n-propyl-pyrimido[5,4-d]pyrimidine-2,4,6,8-tetraamine], the “AUC MV Inc (2 min) (ratio vs. std*)” value in the data set with anesthetized rat came out at 0.06 ratio vs. std. In addition, the half-life at 5 μM in the data set “in vitro” came to 1.57 h; in data set [1], 1.32 h.

Consider `CCCNc1nc(N2CCCCC2)nc2c(NCCC)nc(NC)nc12` [Compound 43a, N^2-Methyl-N^4,N^8-di-n-propyl-6-(piperidin-1-yl)-pyrimido[5,4-d]pyrimidine-2,4,8-triamine], for which, in the data set with anesthetized rat, the “AUC MV Inc (2 min) (ratio vs. std*)” value was 0.20 ratio vs. std. For the same compound, the half-life at 5 μM in “in vitro” worked out at 1.15 h; in data set [1] it was 1.63 h.

In the case of `C#CCNc1nc(NC)nc2c(NCCC)nc(NC)nc12.Cl` [Compound 13a, N^2,N^6-Dimethyl-N^4-n-propyl-N^8-prop-2-ynyl-pyrimido[5,4-d]pyrimidine-2,4,6,8-tetraamine hydrochloride], the “AUC MV Inc (2 min) (ratio vs. std*)” value in the data set with anesthetized rat amounted to 0.56 ratio vs. std. The half-life at 5 μM was 3.4 h in the data set “in vitro” and 5.7 h in data set [1].

On to `CCCNc1nc(N(CC)CC)nc2c(NCCC)nc(NC)nc12.Cl` [Compound 31a, N^2,N^2-Diethyl-N^6-methyl-N^4,N^8-di-n-propyl-pyrimido[5,4-d]pyrimidine-2,4,6,8-tetraamine hydrochloride], for which, in the data set on anesthetized rat, the “AUC MV Inc (2 min) (ratio vs. std*)” value amounted to 0.01 ratio vs. std. For the same compound, the half-life at 5 μM in the data set “in vitro” amounted to 1.8 h; in data set [1], 6.95 h.

Broadly, the half-life is the time in which the quantity being followed falls by half.
